These results are taken from patent US20240124444A1 (Celgene Corporation, priority 2020, published 2024).

The term EC50 denotes the concentration that produces a half-maximal response.

Where two headings read alike, the source gives them in different places.

This assay deals with C. parvum strain UGA1. The assay is described as follows: C. parvum growth inhibition assay (Nluc luminescence in HCT-8 cells). The format is cell-based, Cryptosporidium parvum. The settings on record: Cryptosporidium parvum; for inhibition at 1 µM / inhibition at 10 µM: HCT-8; for inhibition at 1 µM: read-out: % inh @ 1 uM C. parvum; for inhibition at 10 µM: read-out: % inh @ 10 uM C. parvum; for EC50: HCT-8, 48 h, C. parvum growth inhibition in HCT-8 cells, 48 hours, 6 concentrations 10-0.04 μM.

Where [1] appears, read: single point inhibition at 1 uM.
Setting [2] is: single point inhibition at 10 uM.
Where [3] appears, read: single point inhibition @ 10 uM.

As to `CCOc1nccc(-c2cc3cnc(NC(=O)c4cccc5cn[nH]c45)cc3[nH]2)n1` [Example 243, N-(2-(2-ethoxypyrimidin-4-yl)-1H-pyrrolo[3,2-c]pyridin-6-yl)-1H-indazole-7-carboxamide], the inhibition at 1 µM under setting [1] lay in the range of 0 to 33%. For the same compound, under setting [2], the inhibition at 10 µM was 0 to 33%. On to `Cn1cc(C(=O)Nc2cc3[nH]c(-c4ccnc(OCC5CCC5)n4)cc3cn2)cn1` [Example 313, N-(2-(2-(cyclobutylmethoxy)pyrimidin-4-yl)-1H-pyrrolo[3,2-c]pyridin-6-yl)-1-methyl-1H-pyrazole-4-carboxamide], for which the inhibition at 1 µM under setting [1] is 0 to 33%. Further, under setting [2], the inhibition at 10 µM fell in the range of 0 to 33%.

For `COc1nccc(-c2cc3cnc(NC(=O)c4cccc5c4cnn5C)cc3[nH]2)n1` [Example 220, N-(2-(2-methoxypyrimidin-4-yl)-1H-pyrrolo[3,2-c]pyridin-6-yl)-1-methyl-1H-indazole-4-carboxamide], the inhibition at 1 µM under setting [1] lay in the range of 0 to 33%. The inhibition at 10 µM under setting [2] is 33 to 66%. The matching figures for `Cn1cc(C(=O)Nc2cc3[nH]c(-c4ccc(C(F)(F)F)nc4)cc3cn2)cn1` [Example 306, 1-methyl-N-(2-(6-(trifluoromethyl)pyridin-3-yl)-1H-pyrrolo[3,2-c]pyridin-6-yl)-1H-pyrazole-4-carboxamide]: 0 to 33% and 0 to 33%.

As for `Cc1cc(-c2cc3cnc(N(C)C4CCOCC4)cc3[nH]2)ccn1` [Example 114, N-methyl-2-(2-methylpyridin-4-yl)-N-(tetrahydro-2H-pyran-4-yl)-1H-pyrrolo[3,2-c]pyridin-6-amine], the EC50 is above 1 µM.

Regarding `CCOc1nccc(-c2cc3cnc(NC(=O)C4C5CCCCC54)cc3[nH]2)n1` (centres unmarked) [Example 158, N-(2-(2-ethoxypyrimidin-4-yl)-1H-pyrrolo[3,2-c]pyridin-6-yl)bicyclo[4.1.0]heptane-7-carboxamide], the inhibition at 1 µM (single point inhibition @ 1 uM) was 0 to 33%. The inhibition at 10 µM under setting [3] fell in the range of 67 to 100%. For the compound `CO[C@H]1C[C@@H](C(=O)Nc2cc3[nH]c(-c4ccnc(C)c4)cc3cn2)C1` [Example 191, (1s,3s)-3-methoxy-N-(2-(2-methylpyridin-4-yl)-1H-pyrrolo[3,2-c]pyridin-6-yl)cyclobutanecarboxamide], the inhibition at 1 µM (single point inhibition @ 1 uM) fell in the range of 0 to 33%. Moreover, the inhibition at 10 µM under setting [3] lay within 67 to 100%.

As to `COc1nccc(-c2cc3cnc(NC(=O)c4cn(CC5CCOC5)nc4C)cc3[nH]2)n1` (stereo in doubt) [Example 326, (S)-N-(2-(2-methoxypyrimidin-4-yl)-1H-pyrrolo[3,2-c]pyridin-6-yl)-3-methyl-1-((tetrahydrofuran-3-yl)methyl)-1H-pyrazole-4-carboxamide], the inhibition at 1 µM under setting [1] fell in the range of 0 to 33%. The inhibition at 10 µM under setting [2] is 0 to 33%. For the compound `Cn1cc(C(=O)Nc2cc3[nH]c(-c4cc(C(F)(F)F)ccn4)cc3cn2)cn1` [Example 299, 1-methyl-N-(2-(4-(trifluoromethyl)pyridin-2-yl)-1H-pyrrolo[3,2-c]pyridin-6-yl)-1H-pyrazole-4-carboxamide], the inhibition at 1 µM under setting [1] fell in the range of 0 to 33%. Under setting [2], the inhibition at 10 µM fell in the range of 0 to 33%.

As for `CNc1cc2c(cn1)cc(-c1cc(C)ncn1)n2C` [Example 126, N,1-dimethyl-2-(6-methylpyrimidin-4-yl)-1H-pyrrolo[3,2-c]pyridin-6-amine], the EC50 is above 1 µM. In the case of `CC(C)n1cc(-c2cc3cnc(NC4CCOCC4)cc3n2C)cn1` [Example 241, 2-(1-isopropyl-1H-pyrazol-4-yl)-1-methyl-N-(tetrahydro-2H-pyran-4-yl)-1H-pyrrolo[3,2-c]pyridin-6-amine], the inhibition at 1 µM under setting [1] lay in the range of 33 to 66%. For the same compound, under setting [2], the inhibition at 10 µM is 0 to 33%. In the case of `O=C(Nc1cc2[nH]c(C(F)(F)F)cc2cn1)C1CCCC1` [Example 111, N-(2-(trifluoromethyl)-1H-pyrrolo[3,2-c]pyridin-6-yl)cyclopentanecarboxamide], the EC50 was above 1 µM. `O=C(Nc1cc2[nH]c(-c3cnc(C(F)(F)F)s3)cc2cn1)C1CC1` [Example 103, N-(2-(2-(trifluoromethyl)thiazol-5-yl)-1H-pyrrolo[3,2-c]pyridin-6-yl)cyclopropanecarboxamide] gave an EC50 above 1 µM. For the compound `COc1nccc(-c2cc3cnc(NC(=O)C(C)(C)C)cc3[nH]2)n1` [Example 297, N-(2-(2-methoxypyrimidin-4-yl)-1H-pyrrolo[3,2-c]pyridin-6-yl)pivalamide], the inhibition at 1 µM under setting [1] was in the range of 0 to 33%. In addition, under setting [2], the inhibition at 10 µM is 0 to 33%. As to `Cc1ncc(-c2cc3cnc(NC(=O)c4cnn(C)c4)cc3[nH]2)o1` [Example 267, 1-methyl-N-(2-(2-methyloxazol-5-yl)-1H-pyrrolo[3,2-c]pyridin-6-yl)-1H-pyrazole-4-carboxamide], the inhibition at 1 µM under setting [1] lay in the range of 0 to 33%. The inhibition at 10 µM under setting [2] lay within 0 to 33%. `O=C(Nc1cc2c(cn1)cc(C(F)(F)F)n2CCO)C1CC1` [Example 116, N-(1-(2-hydroxyethyl)-2-(trifluoromethyl)-1H-pyrrolo[3,2-c]pyridin-6-yl)cyclopropanecarobxamide]: the EC50 is above 1 µM. Consider `CC(C)n1cc(C(=O)Nc2cc3c(cn2)cc(-c2ccnc(NCC4CC4)n2)n3C)cn1` [Example 131, N-(2-(2-(cyclopropylmethylamino)pyrimidin-4-yl)-1-methyl-1H-pyrrolo[3,2-c]pyridin-6-yl)-1-isopropyl-1H-pyrazole-4-carboxmaide], for which the inhibition at 1 µM (single point inhibition @ 1 uM) lay within 0 to 33%. The inhibition at 10 µM under setting [3] is 67 to 100%.

With `O=C(Nc1cc2[nH]c(-c3ccncc3)cc2cn1)C1CCCCC1` [Example 217, N-(2-(pyridin-4-yl)-1H-pyrrolo[3,2-c]pyridin-6-yl)cyclohexanecarboxamide], the inhibition at 1 µM under setting [1] was 0 to 33%. Further, under setting [2], the inhibition at 10 µM is 33 to 66%. The matching figures for `CNC(=O)Nc1cc2[nH]c(-c3ccnc(C)c3)cc2cn1` [Example 214, 1-methyl-3-(2-(2-methylpyridin-4-yl)-1H-pyrrolo[3,2-c]pyridin-6-yl)urea]: 0 to 33% and 67 to 100%. `Cn1c(C(F)(F)F)cc2cnc(NC(=O)C3CC3)cc21` [Example 77, N-(1-methyl-2-(trifluoromethyl)-1H-pyrrolo[3,2-c]pyridin-6-yl)cyclopropanecarboxamide] displayed an EC50 above 1 µM.

As to `c1ccc(Nc2cc3[nH]c(-c4cccnc4)cc3cn2)cc1` [Example 189, N-phenyl-2-(pyridin-3-yl)-1H-pyrrolo[3,2-c]pyridin-6-amine], the inhibition at 1 µM (single point inhibition @ 1 uM) was 0 to 33%. Besides, the inhibition at 10 µM under setting [3] was in the range of 67 to 100%. On to `c1ccc(-c2cc3cnc(NC4CCOCC4)cc3[nH]2)nc1` [Example 349, 2-(pyridin-2-yl)-N-(tetrahydro-2H-pyran-4-yl)-1H-pyrrolo[3,2-c]pyridin-6-amine], for which the EC50 is above 1 µM. As to `Cn1cc(C(=O)Nc2cc3[nH]c(C4CCOCC4)cc3cn2)cn1` [Example 259, 1-methyl-N-(2-(tetrahydro-2H-pyran-4-yl)-1H-pyrrolo[3,2-c]pyridin-6-yl)-1H-pyrazole-4-carboxamide], the inhibition at 1 µM under setting [1] was in the range of 0 to 33%. Under setting [2], the inhibition at 10 µM was in the range of 0 to 33%. In the case of `Cn1c(-c2ccnc(NCC(F)(F)F)n2)cc2cnc(N[C@H]3CCCOC3)cc21` (racemic) [Example 36, 1-Methyl-N-[rac-(3s)-tetrahydropyran-3-yl]-2-[2-(2,2,2-trifluoroethylamino)pyrimidin-4-yl]pyrrolo[3,2-c]pyridin-6-amine], the EC50 was above 1 µM. Moreover, under “single point inhibition @ 1 uM”, the inhibition at 1 µM was 33 to 66%. In addition, the inhibition at 10 µM under setting [3] lay in the range of 67 to 100%. Compound `CCn1c(-c2ccnc(OC)n2)cc2cnc(NC(=O)C3CC3)cc21` [Example 344, N-(1-ethyl-2-(2-methoxypyrimidin-4-yl)-1H-pyrrolo[3,2-c]pyridin-6-yl)cyclopropanecarboxamide] came in with an EC50 of 0.5 to 1 µM. In the case of `Cc1cc(-c2cc3cnc(N)cc3[nH]2)ccn1` [Example 81, 2-(2-methylpyridin-4-yl)-1H-pyrrolo[3,2-c]pyridin-6-amine], the EC50 was above 1 µM. Under “single point inhibition @ 1 uM”, the inhibition at 1 µM is 0 to 33%. Besides, under setting [3], the inhibition at 10 µM lay in the range of 33 to 66%.

`Cc1cc(-c2cc3cnc(NC(=O)C4CC4)cc3n2C)ccn1` [Example 83, N-(1-methyl-2-(2-methylpyridin-4-yl)-1H-pyrrolo[3,2-c]pyridin-6-yl)cyclopropanecarboxamide] registered an EC50 above 1 µM. Further, the inhibition at 1 µM (single point inhibition @ 1 uM) was 0 to 33%. For the same compound, under setting [3], the inhibition at 10 µM was 0 to 33%.

Regarding `Cc1cc(-c2cc3cnc(NC4COC4)cc3[nH]2)ccn1` [Example 113, 2-(2-methylpyridin-4-yl)-N-(oxetan-3-yl)-1H-pyrrolo[3,2-c]pyridin-6-amine], the EC50 is above 1 µM. In turn, `c1cncc(-c2cc3cnc(NC4CCOCC4)cc3[nH]2)c1` [Example 72, 2-(pyridin-3-yl)-N-(tetrahydro-2H-pyran-4-yl)-1H-pyrrolo[3,2-c]pyridin-6-amine] showed an EC50 above 1 µM. Besides, the inhibition at 1 µM (single point inhibition @ 1 uM) lay within 0 to 33%. Besides, the inhibition at 10 µM under setting [3] lay within 0 to 33%. For the compound `Cc1nc(-c2cc3cnc(NC(=O)C4CC4)cc3[nH]2)co1` [Example 335, N-(2-(2-methyloxazol-4-yl)-1H-pyrrolo[3,2-c]pyridin-6-yl)cyclopropanecarboxamide], the inhibition at 1 µM under setting [1] fell in the range of 0 to 33%. The inhibition at 10 µM under setting [2] was in the range of 0 to 33%. With `Cn1cc(C(=O)Nc2cc3c(cn2)cc(-c2ccnc(NCC(F)F)n2)n3C)cn1` [Example 144, N-(2-(2-(2,2-difluroethylamino)pyrimidin-4-yl)-1-methyl-1H-pyrrolo[3,2-c]pyridin-6-yl)-1-methyl-1H-pyrazole-4-carboxmaide], for the setting “single point inhibition @ 1 uM”, the inhibition at 1 µM lay within 0 to 33%. Further, under setting [3], the inhibition at 10 µM was 67 to 100%. Turning to `CO[C@H]1CC[C@@H](Nc2cc3[nH]c(-c4cccnc4)cc3cn2)CC1` [Example 228, N-((1s,4s)-4-methoxycyclohexyl)-2-(pyridin-3-yl)-1H-pyrrolo[3,2-c]pyridin-6-amine], under setting [1], the inhibition at 1 µM lay within 33 to 66%. Also, the inhibition at 10 µM under setting [2] fell in the range of 33 to 66%.
